Tested on: angioedema in CSU patients
Assay: Phase 2 CSU study: angioedema activity score over 7 days (AAS7)
Assay type: in vivo, human
Set-up: AAS7, Median / AAS7 Change from baseline, Median: scale not given here
Settings: Omalizumab-Naïve Population
Text: The study comprises a 12 week, randomized, double-blind, placebo-controlled, multi-center, dose-ranging efficacy and safety phase, followed by a 40 week open label extension (OLE) phase (see FIG. 1). The study consists of three phases and an optional OLE phase. […] The weekly angioedema activity score (AAS7) was proposed as a tertiary endpoint. […] Patients were to complete the AAS using the e-diary. The e-diary was to be used once daily on the same time of each day recording of participant's answers to the angioedema activity score over 7 days (AAS7) questionnaire.

CC(C)(C=C(C#N)C(=O)N1CCC[C@@H](n2nc(-c3ccc(Oc4ccccc4)cc3F)c3c(N)ncnc32)C1)N1CCN(C2COC2)CC1 [rilzabrutinib, (R)-2-[3-[4-amino-3-(2-fluoro-4-phenoxy-phenyl)pyrazolo[3,4-d]pyrimidin-1-yl]piperidine-1-carbonyl]-4-methyl-4-[4-(oxetan-3-yl)piperazin-1-yl]pent-2-enenitrile]
AAS7, Median (400 mg BID, Week 10): 0.00 | AAS7 Change from baseline, Mean (SD) (400 mg BID, Week 10): −29.84 (25.74) | AAS7 Change from baseline, Median (400 mg BID, Week 10): −24.00 | AAS7 Percent change from baseline, Mean (SD) (400 mg BID, Week 10): −45.78 (130.13) % | AAS7 Percent change from baseline, Median (400 mg BID, Week 10): −100.00% | AAS7, Median (400 mg BID, Week 11): 0.00 | AAS7 Change from baseline, Mean (SD) (400 mg BID, Week 11): −35.05 (24.68) | AAS7 Change from baseline, Median (400 mg BID, Week 11): −29.17 | AAS7 Percent change from baseline, Mean (SD) (400 mg BID, Week 11): −73.13 (48.67) % | AAS7 Percent change from baseline, Median (400 mg BID, Week 11): −100.00% | AAS7, Median (400 mg BID, Week 12): 0.00 | AAS7 Change from baseline, Mean (SD) (400 mg BID, Week 12): −35.73 (26.59) | AAS7 Change from baseline, Median (400 mg BID, Week 12): −37.00 | AAS7 Percent change from baseline, Mean (SD) (400 mg BID, Week 12): −76.62 (36.34) % | AAS7 Percent change from baseline, Median (400 mg BID, Week 12): −100.00% | AAS7, Mean (SD) (400 mg QPM, End of Study): 17.46 (29.82) | AAS7, Median (400 mg QPM, End of Study): 4.00 | AAS7 Change from baseline, Mean (SD) (400 mg QPM, End of Study): −4.04 (35.07) | AAS7 Change from baseline, Median (400 mg QPM, End of Study): −8.50 | AAS7 Percent change from baseline, Mean (SD) (400 mg QPM, End of Study): −14.64 (160.23) % | AAS7 Percent change from baseline, Median (400 mg QPM, End of Study): −92.00% | AAS7, Median (400 mg QPM, Week 1): 39.00 | AAS7 Change from baseline, Mean (SD) (400 mg QPM, Week 1): −18.63 (22.01) | AAS7 Change from baseline, Median (400 mg QPM, Week 1): −19.00 | AAS7 Percent change from baseline, Mean (SD) (400 mg QPM, Week 1): −30.81 (44.93) % | AAS7 Percent change from baseline, Median (400 mg QPM, Week 1): −35.35% | AAS7, Median (400 mg QPM, Week 2): 31.50 | AAS7 Change from baseline, Mean (SD) (400 mg QPM, Week 2): −20.23 (24.12) | AAS7 Change from baseline, Median (400 mg QPM, Week 2): −11.00 | AAS7 Percent change from baseline, Mean (SD) (400 mg QPM, Week 2): −36.22 (43.96) % | AAS7 Percent change from baseline, Median (400 mg QPM, Week 2): −31.31% | AAS7, Median (400 mg QPM, Week 3): 34.00 | AAS7 Change from baseline, Mean (SD) (400 mg QPM, Week 3): −20.88 (26.24) | AAS7 Change from baseline, Median (400 mg QPM, Week 3): −13.00 | AAS7 Percent change from baseline, Mean (SD) (400 mg QPM, Week 3): −29.46 (63.83) % | AAS7 Percent change from baseline, Median (400 mg QPM, Week 3): −26.00% | AAS7, Median (400 mg QPM, Week 4): 35.00 | AAS7 Change from baseline, Mean (SD) (400 mg QPM, Week 4): −23.93 (24.26) | AAS7 Change from baseline, Median (400 mg QPM, Week 4): −17.00 | AAS7 Percent change from baseline, Mean (SD) (400 mg QPM, Week 4): −46.35 (39.61) % | AAS7 Percent change from baseline, Median (400 mg QPM, Week 4): −46.27% | AAS7, Median (400 mg QPM, Week 5): 23.50 | AAS7 Change from baseline, Mean (SD) (400 mg QPM, Week 5): −29.64 (28.55) | AAS7 Change from baseline, Median (400 mg QPM, Week 5): −17.00 | AAS7 Percent change from baseline, Mean (SD) (400 mg QPM, Week 5): −55.69 (41.16) % | AAS7 Percent change from baseline, Median (400 mg QPM, Week 5): −59.46% | AAS7, Median (400 mg QPM, Week 6): 24.38 | AAS7 Change from baseline, Mean (SD) (400 mg QPM, Week 6): −28.36 (28.62) | AAS7 Change from baseline, Median (400 mg QPM, Week 6): −23.63 | AAS7 Percent change from baseline, Mean (SD) (400 mg QPM, Week 6): −47.92 (45.31) % | AAS7 Percent change from baseline, Median (400 mg QPM, Week 6): −55.14% | AAS7, Median (400 mg QPM, Week 7): 30.00 | AAS7 Change from baseline, Mean (SD) (400 mg QPM, Week 7): −26.95 (30.21) | AAS7 Change from baseline, Median (400 mg QPM, Week 7): −28.00 | AAS7 Percent change from baseline, Mean (SD) (400 mg QPM, Week 7): −33.18 (69.78) % | AAS7 Percent change from baseline, Median (400 mg QPM, Week 7): −50.00% | AAS7, Median (400 mg QPM, Week 8): 18.00 | AAS7 Change from baseline, Mean (SD) (400 mg QPM, Week 8): −29.80 (30.38) | AAS7 Change from baseline, Median (400 mg QPM, Week 8): −28.00 | AAS7 Percent change from baseline, Mean (SD) (400 mg QPM, Week 8): −49.05 (70.23) % | AAS7 Percent change from baseline, Median (400 mg QPM, Week 8): −66.00% | AAS7, Median (400 mg QPM, Week 9): 26.30 | AAS7 Change from baseline, Mean (SD) (400 mg QPM, Week 9): −28.66 (27.25) | AAS7 Change from baseline, Median (400 mg QPM, Week 9): −29.00 | AAS7 Percent change from baseline, Mean (SD) (400 mg QPM, Week 9): −46.39 (66.49) % | AAS7 Percent change from baseline, Median (400 mg QPM, Week 9): −56.26% | AAS7, Median (400 mg QPM, Week 10): 28.00 | AAS7 Change from baseline, Mean (SD) (400 mg QPM, Week 10): −28.93 (28.14) | AAS7 Change from baseline, Median (400 mg QPM, Week 10): −28.92 | AAS7 Percent change from baseline, Mean (SD) (400 mg QPM, Week 10): −46.90 (68.16) % | AAS7 Percent change from baseline, Median (400 mg QPM, Week 10): −50.17% | AAS7, Median (400 mg QPM, Week 11): 30.10 | AAS7 Change from baseline, Mean (SD) (400 mg QPM, Week 11): −29.18 (28.09) | AAS7 Change from baseline, Median (400 mg QPM, Week 11): −32.40 | AAS7 Percent change from baseline, Mean (SD) (400 mg QPM, Week 11): −47.96 (69.01) % | AAS7 Percent change from baseline, Median (400 mg QPM, Week 11): −52.90% | AAS7, Median (400 mg QPM, Week 12): 26.83 | AAS7 Change from baseline, Mean (SD) (400 mg QPM, Week 12): −29.03 (28.74) | AAS7 Change from baseline, Median (400 mg QPM, Week 12): −28.00 | AAS7 Percent change from baseline, Mean (SD) (400 mg QPM, Week 12): −48.34 (71.54) % | AAS7 Percent change from baseline, Median (400 mg QPM, Week 12): −59.34% | AAS7, Mean (SD) (400 mg TID, End of Study): 26.75 (33.68) | AAS7, Median (400 mg TID, End of Study): 16.00 | AAS7 Change from baseline, Mean (SD) (400 mg TID, End of Study): −21.25 (14.29) | AAS7 Change from baseline, Median (400 mg TID, End of Study): −27.00 | AAS7 Percent change from baseline, Mean (SD) (400 mg TID, End of Study): −58.11 (43.26) % | AAS7 Percent change from baseline, Median (400 mg TID, End of Study): −66.21% | AAS7, Median (400 mg TID, Week 1): 9.00 | AAS7 Change from baseline, Mean (SD) (400 mg TID, Week 1): −28.96 (27.34) | AAS7 Change from baseline, Median (400 mg TID, Week 1): −26.00 | AAS7 Percent change from baseline, Mean (SD) (400 mg TID, Week 1): −56.39 (51.49) % | AAS7 Percent change from baseline, Median (400 mg TID, Week 1): −89.41% | AAS7, Median (400 mg TID, Week 2): 9.33 | AAS7 Change from baseline, Mean (SD) (400 mg TID, Week 2): −30.89 (28.32) | AAS7 Change from baseline, Median (400 mg TID, Week 2): −27.00 | AAS7 Percent change from baseline, Mean (SD) (400 mg TID, Week 2): −58.84 (53.09) % | AAS7 Percent change from baseline, Median (400 mg TID, Week 2): −81.97% | AAS7, Median (400 mg TID, Week 3): 0.00 | AAS7 Change from baseline, Mean (SD) (400 mg TID, Week 3): −33.83 (29.99) | AAS7 Change from baseline, Median (400 mg TID, Week 3): −27.00 | AAS7 Percent change from baseline, Mean (SD) (400 mg TID, Week 3): −69.93 (48.65) % | AAS7 Percent change from baseline, Median (400 mg TID, Week 3): −100.00% | AAS7, Median (400 mg TID, Week 4): 5.00 | AAS7 Change from baseline, Mean (SD) (400 mg TID, Week 4): −36.18 (24.55) | AAS7 Change from baseline, Median (400 mg TID, Week 4): −27.00 | AAS7 Percent change from baseline, Mean (SD) (400 mg TID, Week 4): −76.56 (30.09) % | AAS7 Percent change from baseline, Median (400 mg TID, Week 4): −93.33% | AAS7, Median (400 mg TID, Week 5): 6.00 | AAS7 Change from baseline, Mean (SD) (400 mg TID, Week 5): −37.08 (26.17) | AAS7 Change from baseline, Median (400 mg TID, Week 5): −30.00 | AAS7 Percent change from baseline, Mean (SD) (400 mg TID, Week 5): −73.55 (35.00) % | AAS7 Percent change from baseline, Median (400 mg TID, Week 5): −88.24% | AAS7, Median (400 mg TID, Week 6): 0.00 | AAS7 Change from baseline, Mean (SD) (400 mg TID, Week 6): −32.35 (30.51) | AAS7 Change from baseline, Median (400 mg TID, Week 6): −27.00 | AAS7 Percent change from baseline, Mean (SD) (400 mg TID, Week 6): −63.91 (58.28) % | AAS7 Percent change from baseline, Median (400 mg TID, Week 6): −100.00% | AAS7, Median (400 mg TID, Week 7): 2.50 | AAS7 Change from baseline, Mean (SD) (400 mg TID, Week 7): −32.23 (26.57)

From patent US20260256792A1, “TREATMENT OF CHRONIC SPONTANEOUS URTICARIA BY ADMINISTERING (R)-2-[3-[4-AMINO-3-(2-FLUORO-4-PHENOXY-PHENYL)PYRAZOLO[3,4-D]PYRIMIDIN-1-YL]PIPERIDINE-1-CARBONYL]-4-METHYL-4-[4-(OXETAN-3-YL)PIPERAZIN-1-YL]PENT-2-ENENITRILE” (priority 2023, published 2026)
